The values that follow are results of earlier work, collected in patent US20210275440A1, “MICROBEAD COMPOSITIONS AND METHODS FOR DELIVERING AN AGENT” (THE UNIVERSITY OF MEMPHIS RESEARCH FOUNDATION, priority 2016, published 2021).

For this data set the following is noted: intra-articular administration.

In the case of `CN[C@H](CC(C)C)C(=O)N[C@H]1C(=O)N[C@@H](CC(N)=O)C(=O)N[C@H]2C(=O)N[C@H]3C(=O)N[C@H](C(=O)N[C@H](C(=O)O)c4cc(O)cc(O)c4-c4cc3ccc4O)[C@H](O)c3ccc(c(Cl)c3)Oc3cc2cc(c3O[C@@H]2O[C@H](CO)[C@@H](O)[C@H](O)[C@H]2O[C@H]2C[C@](C)(N)[C@H](O)[C@H](C)O2)Oc2ccc(cc2Cl)[C@H]1O` (atropisomer, axis not shown) [vancomycin], the half-life is given as 3 h; the “time therapeutic levels in joint and serum were maintained” value is listed as 24 h.
